# Data published in patent US6894068B2, “Substituted benzimidazoles as non-nucleoside inhibitors of reverse transcriptase” (The United States of America as represented by the …, priority 1997, dated 2005).
# pEC50, pIC50: −log10 of the molar value. Like-named read-outs stand apart in the source and are kept apart here.
# What was measured:
# HIV-1 WT RT = HIV-1 WT RT (Human immunodeficiency virus type 1 group M subtype B, UniProt P03366); experiment: biochemical; format: biochemical
# [1] = test system: WT and HIV-1 variants containing amino acid substitutions in RT; format: cell-based
# Text: In these Tables, antiviral data are reported as the quantity of drug in μM required to reduce cell killing or virus production by 50% (EC50). The various HIV isolates tested in the Figures are those corresponding to wild-type virus (NL4-3) and the other strains listed by their RT mutations. The three 4×AZT isolates included in the Figures represent AZT drug-resistant variants.
# (§1) Briefly, in this method cells (e.g., the CEM-SS cell line, available from the NIAID AIDS Research and Reference Program [ARRRP]) were seeded at a density of 5×10^3 cells/well, into the wells of a 96-well microtiter plate. The cells were then infected with HIV virus (either mutant or WT), at a multiplicity of infection (MOI) previously determined to provide complete cell killing by 6 days of culture post-infection (e.g., MOI of 0.01-0.05). Each of the HIV isolates was pre-titered to induce equivalent levels of infection based on cell killing or virus production, prior to their use in these assays. A range of test compound concentrations was added to the wells in triplicate (e.g., serial half-log dilutions) to evaluate inhibition of HIV infection. Controls for each assay included drug controls (drug colorimetric control wells), drug cytotoxicity control wells (cells with drug), virus control wells (cells with virus), and cell viability controls (cells only). Positive control drugs (e.g. AZT and ddC) were also run in parallel.
# (§2) After six days of incubation at 37° C., cell viability was determined spectrophotometrically at 450 nm for each well, using the metabolic reduction of XTT to a soluble colored formazan. (See, Gartner and Popovic, “Virus Isolation and Production, in Aldovini and Walker (eds.), Techniques in HIV Research, Stockton Press, NY, pp. […] [1991]; and Nara and Fischinger, “Quantitative Infectivity Assay for HIV-1 and HIV-2, ” Nature 332:469-470 [1988]).
# Antiviral and toxicity data were reported as the quantity of drug required to inhibit 50% of virus-induced cell killing or virus production (EC50), and the quantity of drug required to […] (IC50). The in vitro therapeutic index (TI50) was defined as the fold-difference between the EC50 and IC50.
# HIV-1 isolate V108I = experiment: Cytopathic cell killing assay, MT-4 cells, isolate V108I; format: cell-based; settings: MT-4 cells
# Text: (§3) The various HIV isolates tested in the Figures are those corresponding to wild-type virus (NL4-3) and the other strains listed by their RT mutations. The three 4×AZT isolates included in the Figures represent AZT drug-resistant variants. For example, the 4×AZT/L100I isolate has five mutations: four mutations confer increased resistance to AZT, and the other mutation is located within the NNRTI binding pocket. TZB and nevir. (nevirapine) are two well-known NNRTIs, included in this experiment for comparison purposes.
# (§4) In this Example, the antiviral and cellular toxicity of NNRTIs was investigated, using the cytopathic cell killing assay described by Yang (Yang et al., “Characteristics of a Group of Non-nucleoside Reverse Transcriptase Inhibitors with Structural Diversity and Potent Anti-Human Immunodeficiency Virus Activity,” Leukemia 9:S75-S85 [1995]). Briefly, in this method cells (e.g., the CEM-SS cell line, available from the NIAID AIDS Research and Reference Program [ARRRP]) were seeded at a density of 5×10^3 cells/well, into the wells of a 96-well microtiter plate. The cells were then infected with HIV virus (either mutant or WT), at a multiplicity of infection (MOI) previously determined to provide complete cell killing by 6 days of culture post-infection (e.g., MOI of 0.01-0.05). Each of the HIV isolates was pre-titered to induce equivalent levels of infection based on cell killing or virus production, prior to their use in these assays. A range of test compound concentrations was added to the wells in triplicate (e.g., serial half-log dilutions) to evaluate inhibition of HIV infection. Controls for each assay included drug controls (drug colorimetric control wells), drug cytotoxicity control wells (cells with drug), virus control wells (cells with virus), and cell viability controls (cells only). Positive control drugs (e.g. AZT and ddC) were also run in parallel.
# as §2
# (§5) The in vitro therapeutic index (TI50) was defined as the fold-difference between the EC50 and IC50. The results for the various compounds are included in FIGS. 8 and 19.
# HIV-1 isolate A98G = experiment: Cytopathic cell killing assay, MT-4 cells, isolate A98G; format: cell-based; settings: Human immunodeficiency virus 1, MT4, read-out: EC50, isolate A98G, Table 8; MT-4 cells
# Text: as §3, §4, §2, §5
# HIV-1 isolate K101E = experiment: Cytopathic cell killing assay, MT-4 cells, isolate K101E; format: cell-based; settings: MT-4 cells
# Text: as §3, §4, §2, §5
# HIV-1 isolate L100I = experiment: Cytopathic cell killing assay, MT-4 cells, isolate L100I; format: cell-based
# Text: as §3, §4, §2, §5
# HIV-1 isolate V179D = experiment: Cytopathic cell killing assay, MT-4 cells, isolate V179D; format: cell-based; settings: Human immunodeficiency virus 1, MT4, read-out: EC50, isolate V179D, Table 8; MT-4 cells
# Text: as §3, §4, §2, §5
# HIV-1 isolate V106A = experiment: Cytopathic cell killing assay, MT-4 cells, isolate V106A; format: cell-based; settings: Human immunodeficiency virus 1, MT4, read-out: EC50, isolate V106A, Table 8; MT-4 cells
# Text: as §3
# In this Example, the antiviral and cellular toxicity of NNRTIs was investigated, using the cytopathic cell killing assay described by Yang (Yang et al., “Characteristics of a Group of Non-nucleoside Reverse Transcriptase Inhibitors with Structural Diversity and Potent Anti-Human Immunodeficiency Virus Activity,” Leukemia 9:S75-S85 [1995]). Briefly, in this method cells (e.g., the CEM-SS cell line, available from the NIAID AIDS Research and Reference Program [ARRRP]) were seeded at a density of 5×10^3 cells/well, into the wells of a 96-well microtiter plate. The cells were then infected with HIV virus (either mutant or WT), at a multiplicity of infection (MOI) previously determined to provide complete cell killing by 6 days of culture post-infection (e.g., MOI of 0.01-0.05). Each of the HIV isolates was pre-titered to induce equivalent levels of infection based on cell killing or virus production, prior to their use in these assays. A range of test compound concentrations was added to the wells in triplicate (e.g., serial half-log dilutions) to evaluate inhibition of HIV infection. […]
# After six days of incubation at 37° C., cell viability was determined spectrophotometrically at 450 nm for each well, using the metabolic reduction of XTT to a soluble colored formazan. (See, Gartner and Popovic, “Virus Isolation and Production, in Aldovini and Walker (eds.), Techniques in HIV Research, Stockton Press, NY, pp. […] [1991]; and Nara and Fischinger, “Quantitative Infectivity Assay for HIV-1 and HIV-2, ” Nature 332:469-470 [1988]). […]
# HIV-1 isolate K103N = experiment: Cytopathic cell killing assay, MT-4 cells, isolate K103N; format: cell-based; settings: for pEC50: MT-4 cells
# Text: as §3, §4, §2, §5
# HIV-1 isolate Y181C = experiment: Cytopathic cell killing assay, MT-4 cells, isolate Y181C; format: cell-based; settings: for pEC50: MT-4 cells
# Text: as §3, §4, §2, §5
# HIV-1 NL4-3 (WT) = experiment: Cytopathic cell killing assay, MT-4 cells, isolate NL4-3 (WT); format: cell-based; settings: for pEC50: MT-4 cells
# Text: as §3, §4, §2, §5
# HIV-1 WT virus (NL4-3) = experiment: microbe, parasite or virus in culture; format: cell-based; settings: for pEC50: Human immunodeficiency virus 1, NL43, CEM-SS, read-out: EC50
# Method: Evaluation of these compounds for the inhibition of HIV-1 was determined as the fifty percent cell culture inhibitory concentration (CIC50) in CEMSS cell culture with WT virus (NL4-3).
# as §4, §2, §5
# HIV-1 isolate L74V = experiment: Cytopathic cell killing assay, MT-4 cells, isolate L74V; format: cell-based; settings: MT-4 cells
# Text: as §3, §4, §2, §5
# HIV-1 isolate Y188C = experiment: Cytopathic cell killing assay, MT-4 cells, isolate Y188C; format: cell-based; settings: for pEC50: MT-4 cells
# Text: as §3, §4, §2, §5
# [2] = test system: HIV-1 isolate 4xAZT/Y181C; experiment: Cytopathic cell killing assay, MT-4 cells, isolate 4xAZT/Y181C; format: cell-based; settings: read-out: EC50, isolate 4XAZT/Y181C; Table 9; MT-4 cells
# Text: as §3, §4, §2, §5
# [3] = test system: HIV-1 isolate 4xAZT/L100I; experiment: Cytopathic cell killing assay, MT-4 cells, isolate 4xAZT/L100I; format: cell-based; settings: read-out: EC50, isolate 4XAZT/L1001; Table 9; MT-4 cells
# Method: The various HIV isolates tested in the Figures are those corresponding to wild-type virus (NL4-3) and the other strains listed by their RT mutations. The three 4×AZT isolates included in the Figures represent AZT drug-resistant variants.
# as §1, §2
# The in vitro therapeutic index (TI50) was defined as the fold-difference between the EC50 and IC50.
# [4] = Table 7, drug concentration required to reduce cell killing or virus production by 50%, WT
structure (smiles),measurement,setting,value
"CC(=O)Nc1cccc2c1nc(-c1c(F)cccc1F)n2Cc1c(F)cccc1F [Compound 3600, 1-(2,6-difluorobenzyl)-2-(2,6-difluorophenyl)-4-acetamidobenzimidazole]",pIC50,HIV-1 WT RT,4.26
same,inhibition at 1 µM,"HIV-1 WT RT; Table 7, 1 μM drug, WT HIV-1 RT, read-out: % inhibn (1 μM)",24%
same,"cross-resistance profile, result in words","[1]; cytopathic cell killing assay, NNRTI-resistant HIV isolates",inhibit HIV-1 better than TZB
same,pEC50,"HIV-1 isolate V108I; Human immunodeficiency virus 1, MT4, read-out: EC50, isolate V1081, Table 8",5.28
same,pEC50,HIV-1 isolate A98G,5.37
same,pEC50,"HIV-1 isolate K101E; Human immunodeficiency virus 1, MT4, read-out: EC50, isolate K101E, Table 8",< 4.70
same,EC50,"HIV-1 isolate L100I; Human immunodeficiency virus 1, MT4, read-out: EC50, isolate L100I, Table 10, values in μM",3.25 µM
same,pEC50,"HIV-1 isolate L100I; Human immunodeficiency virus 1, MT4, read-out: EC50, isolate L1001, Table 8, MT-4 cells",5.68
same,pEC50,HIV-1 isolate V179D,5.77
same,pEC50,HIV-1 isolate V106A,< 4.70
same,pEC50,"HIV-1 isolate K103N; Human immunodeficiency virus 1, MT4, read-out: EC50, isolate K103N, Table 8",< 4.70
same,EC50,"HIV-1 isolate K103N; Human immunodeficiency virus 1, MT4, read-out: EC50, isolate K103N, Table 10, values in μM",> 100 µM
same,pEC50,"HIV-1 isolate Y181C; Human immunodeficiency virus 1, MT4, read-out: EC50, isolate Y181C, Table 8",< 5.00
same,EC50,"HIV-1 isolate Y181C; Human immunodeficiency virus 1, MT4, read-out: EC50, isolate Y181C, Table 10, values in μM",> 100 µM
same,pEC50,"HIV-1 NL4-3 (WT); Human immunodeficiency virus 1, NL43, MT4, Table 8, read-out: EC50, isolate NL4-3",5.80
same,EC50,"HIV-1 NL4-3 (WT); Human immunodeficiency virus 1, NL43, MT4, Table 10, values in μM, read-out: EC50, isolate NL4-3 (WT)",1.97 µM
same,melting point,,194 to 195 °C
same,pEC50,HIV-1 WT virus (NL4-3); [4],5.83
same,pEC50,"HIV-1 isolate L74V; Human immunodeficiency virus 1, MT4, read-out: EC50, isolate L74V, Table 8",5.92
same,pEC50,"HIV-1 isolate Y188C; Human immunodeficiency virus 1, MT4, read-out: EC50, isolate Y188C, Table 8",< 5.00
"Cc1cccc2c1nc(-c1c(F)cccc1F)n2Cc1c(F)cccc1F [Compound 33, 1-(2,6-difluorobenzyl)-2-(2,6-difluorophenyl)-4-methylbenzimidazole]",fold better in the inhibition of the various viral isolates than des-methyl analog 26,[1]; Table 4 isolates,3- to 4 fold
same,pEC50,"HIV-1 isolate V108I; Human immunodeficiency virus 1, MT4, read-out: EC50, isolate V108I, Table 4",5.55
same,pEC50,[2],5.46
same,pEC50,"HIV-1 isolate K101E; Human immunodeficiency virus 1, MT4, read-out: EC50, isolate K101E, Table 4",4.78
same,pEC50,"HIV-1 isolate K103N; Human immunodeficiency virus 1, MT4, read-out: EC50, isolate K103N, Table 4",5.09
same,pEC50,"HIV-1 isolate Y181C; Human immunodeficiency virus 1, MT4, read-out: EC50, isolate Y181C, Table 9",5.37
same,melting point,,182 to 186 °C
same,"cytotoxicity and anti-viral effect, summary graph, result in words",HIV-1 WT virus (NL4-3); FIGS. 10-12,very effective therapeutic dose
same,pEC50,HIV-1 WT virus (NL4-3); [4],6.36
same,pEC50,"HIV-1 WT virus (NL4-3); Table 11, CEMSS/NL4-3, NRVC = no reduction in viral CPE",6.36
same,therapeutic index at 50% (TC50),"HIV-1 WT virus (NL4-3); difference between efficacy of the drug and cellular toxicity, FIG. 10",greater than one log in concentration
same,pEC50,"HIV-1 isolate Y188C; Human immunodeficiency virus 1, MT4, read-out: EC50, isolate Y188C, Table 4",5.64
same,EC50,"HIV-1 isolate Y188C; Human immunodeficiency virus 1, MT4, read-out: EC50, isolate Y188C, Table 10, values in μM",2.3 µM
"Fc1cccc(F)c1C1SCc2nc3ccccc3n21 (centres unmarked) [TZB, 1-(2,6-difluorophenyl)-1H,3H-thiazolo[3,4-a]benzimidazole, reference compound]",pEC50,[3],5.96
same,"activity against K103N, result in words",HIV-1 isolate K103N; cytopathic cell killing assay,ineffective
same,pEC50,"HIV-1 NL4-3 (WT); Human immunodeficiency virus 1, NL43, MT4, read-out: EC50, isolate NL4-3, Table 9",6.00
same,pEC50,"HIV-1 isolate L74V; Human immunodeficiency virus 1, MT4, read-out: EC50, isolate L74V, Table 9",6.10
same,pEC50,"HIV-1 isolate Y188C; Human immunodeficiency virus 1, MT4, read-out: EC50, isolate Y188C, Table 9",< 4.70
